Target: JAK1 (Homo sapiens (Human), UniProt P23458)
Assay: Analysis of JAK1 activity inhibition ability (ADP-Glo Kinase Assay)
Format: biochemical
Details: JAK1 enzyme, ADP-Glo luminescence, ATP 250 uM, IRS-itide substrate, 30° C. 40 minutes; read-out: IC50
Procedure, shortened: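 ADP-Glo luminescence read-out of ADP production, with IC50 taken as the concentration halving JAK1 activity relative to control. Enzyme was incubated 40 min at 30 °C with compound, IRS-itide (40 ng/mL) and ATP (250 uM), concentrations as prepared in pH 7.5 Tris-HCl/MgCl2/BSA/DTT buffer.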

Chain of JAK1 (P23458 whole entry): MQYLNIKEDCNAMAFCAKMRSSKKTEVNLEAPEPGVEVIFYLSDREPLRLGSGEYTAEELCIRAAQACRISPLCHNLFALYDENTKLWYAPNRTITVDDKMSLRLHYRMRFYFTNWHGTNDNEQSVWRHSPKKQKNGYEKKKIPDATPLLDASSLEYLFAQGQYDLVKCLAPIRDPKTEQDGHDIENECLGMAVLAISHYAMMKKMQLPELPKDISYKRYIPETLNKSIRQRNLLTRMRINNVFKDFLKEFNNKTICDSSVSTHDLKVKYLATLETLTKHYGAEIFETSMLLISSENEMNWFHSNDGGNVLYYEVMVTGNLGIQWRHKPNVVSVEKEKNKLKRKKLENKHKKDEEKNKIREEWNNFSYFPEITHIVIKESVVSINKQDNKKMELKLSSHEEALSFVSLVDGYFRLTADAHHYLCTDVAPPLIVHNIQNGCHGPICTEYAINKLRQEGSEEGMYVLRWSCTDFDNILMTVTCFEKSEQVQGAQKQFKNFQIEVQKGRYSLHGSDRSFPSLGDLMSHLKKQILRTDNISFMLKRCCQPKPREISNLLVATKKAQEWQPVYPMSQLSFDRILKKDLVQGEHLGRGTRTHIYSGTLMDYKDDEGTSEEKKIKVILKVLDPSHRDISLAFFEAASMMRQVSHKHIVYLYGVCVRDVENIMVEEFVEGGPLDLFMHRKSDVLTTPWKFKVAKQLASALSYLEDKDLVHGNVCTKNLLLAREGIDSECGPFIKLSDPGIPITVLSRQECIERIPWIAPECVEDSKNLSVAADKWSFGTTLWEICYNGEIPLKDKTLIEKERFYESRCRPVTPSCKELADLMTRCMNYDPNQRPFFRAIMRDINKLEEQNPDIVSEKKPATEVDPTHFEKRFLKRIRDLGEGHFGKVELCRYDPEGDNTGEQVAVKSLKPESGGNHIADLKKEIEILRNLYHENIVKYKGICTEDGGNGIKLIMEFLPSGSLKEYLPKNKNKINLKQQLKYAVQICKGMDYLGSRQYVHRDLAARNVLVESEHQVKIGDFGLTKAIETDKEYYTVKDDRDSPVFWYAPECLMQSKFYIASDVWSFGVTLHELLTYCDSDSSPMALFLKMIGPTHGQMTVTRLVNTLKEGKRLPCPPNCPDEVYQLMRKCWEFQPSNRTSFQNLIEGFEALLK

Compound | IC50 [nM]
CCc1cc(-c2cc(NC(=O)C3CC3)nc3[nH]ccc23)ccc1NS(=O)(=O)C1CC1 [Example 125, N-(4-(4-(cyclopropanesulfonamido)-3-ethylphenyl)-1H-pyrrolo[2,3-b]pyridin-6-yl)cyclopropanecarboxamide] | < 20
CC(C)(C)OC(=O)N1CC(CC#N)(N2CC=C(c3cc(NC(=O)C4CC4)nc4[nH]ccc34)CC2)C1 [Example 614, tert-butyl 3-(cyanomethyl)-3-(4-(6-(cyclopropanecarboxamido)-1H-pyrrolo[2,3-b]pyridin-4-yl)-3,6-dihydropyridin-1 (2H)-yl)azetidine-1-carboxylate] | > 200
CC(C)Oc1ccc(S(=O)(=O)Nc2ccc(-c3cc(NC(=O)C4CC4)nc4[nH]ccc34)cc2)cc1 [Example 19, N-(4-(4-((4-isopropoxyphenyl)sulfonamido)phenyl)-1H-pyrrolo[2,3-b]pyridin-6-yl)cyclopropanecarboxamide] | < 20
CCS(=O)(=O)Nc1ccc(-c2cc(NC(=O)C3CC3C)nc3[nH]ccc23)cc1 (stereo not shown) [Example 35, N-(4-(4-(ethylsulfonamido)phenyl)-1H-pyrrolo[2,3-b]pyridin-6-yl)-2-methylcyclopropane-1-carboxamide] | < 20
O=C(Nc1cc(-c2ccc(NC3CCN(C(=O)c4ccncc4)CC3)cc2)c2cc[nH]c2n1)C1CC1 [Example 507, N-(4-(4-((1-isonicotinoylpiperidin-4-yl)amino)phenyl)-1H-pyrrolo[2,3-b]pyridin-6-yl)cyclopropanecarboxamide] | > 200
O=C(Nc1cc(-c2ccc(NS(=O)(=O)CC3CCOCC3)cc2)c2cc[nH]c2n1)C1CC1 [Example 55, N-(4-(4-(((tetrahydro-2H-pyran-4-yl)methyl)sulfonamido)phenyl)-1H-pyrrolo[2,3-b]pyridin-6-yl)cyclopropanecarboxamide] | < 20
O=C(NCC(F)(F)F)NC1CC=C(c2cc(NC(=O)C3CC3)nc3[nH]ccc23)CC1 (stereo not shown) [Example 442, N-(4-(4-(3-(2,2,2-trifluoroethyl)ureido)cyclohex-1-en-1-yl)-1H-pyrrolo[2,3-b]pyridin-6-yl)cyclopropanecarboxamide] | < 20
N#CCC(=O)NC1CCN(c2cc(NC(=O)C3CC3)nc3[nH]ccc23)CC1 [Example 675, N-(4-(4-(2-cyanoacetamido)piperidin-1-yl)-1H-pyrrolo[2,3-b]pyridin-6-yl)cyclopropanecarboxamide] | > 200
O=C(Nc1cc(C2=CCN(C(=O)c3ccoc3)CC2)c2cc[nH]c2n1)C1CC1 [Example 278, N-(4-(1-(furan-3-carbonyl)-1,2,3,6-tetrahydropyridin-4-yl)-1H-pyrrolo[2,3-b]pyridin-6-yl)cyclopropanecarboxamide] | 20 to 200
CCCS(=O)(=O)Nc1ccc(-c2cc(NC(=O)C3CC3)nc3[nH]ccc23)c(CC)c1 [Example 115, N-(4-(2-ethyl-4-(propylsulfonamido)phenyl)-1H-pyrrolo[2,3-b]pyridin-6-yl)cyclopropanecarboxamide] | < 20
C[C@H]1CC(Nc2ccc(-c3cc(NC(=O)C4CC4)nc4[nH]ccc34)cc2)CCN1C(=O)c1cc(F)cc(F)c1 (stereo partly drawn) [Example 502, N-(4-(4-(((2S)-1-(3,5-difluorobenzoyl)-2-methylpiperidin-4-yl)amino)phenyl)-1H-pyrrolo[2,3-b]pyridin-6-yl)cyclopropanecarboxamide] | > 200
COCCN(C)S(=O)(=O)Nc1ccc(-c2cc(NC(=O)C3CC3)nc3[nH]ccc23)cc1 [Example 223, N-(4-(4-((N-(2-methoxyethyl)-N-methylsulfamoyl)amino)phenyl)-1H-pyrrolo[2,3-b]pyridin-6-yl)cyclopropanecarboxamide] | 20 to 200
CC1CN(C(=O)/C=C/CCBr)CC=C1c1cc(NC(=O)C2CC2)nc2[nH]ccc12 (stereo not shown) [Example 339, (E)-N-(4-(1-(5-bromopent-2-enoyl)-3-methyl-1,2,3,6-tetrahydropyridin-4-yl)-1H-pyrrolo[2,3-b]pyridin-6-yl)cyclopropanecarboxamide] | 20 to 200

From US11524968B2, “Heterocyclic compound as a protein kinase inhibitor” (HK inno.N Corporation, priority 2017, dated 2022)
